# In PMC9599548, “EP-Pred: A Machine Learning Tool for Bioprospecting Promiscuous Ester Hydrolases” (Biomolecules, 2022):
# What was measured:
# Assay in all cases: 4-nitrophenol release at […] nm, initial rates
# Type in all cases: biochemical
# Conditions in all cases: 5 mM EPPS pH 8.0, 30 °C; ester 0–0.04 mM
# WP_014900537.1 = tested on: WP_014900537.1
# WP_089515094.1 = tested on: WP_089515094.1
# WP_026140314.1 = tested on: WP_026140314.1
structure (smiles),measurement,setting,value
CCC(=O)Oc1ccc([N+](=O)[O-])cc1 [p-NP propionate],Km,WP_014900537.1,16.9 ± 1.6 µM
same,Km,WP_089515094.1,23.5 ± 3.5 µM
same,Km,WP_026140314.1,14.5 ± 1.1 µM
